Biological target: human PD-L1 (Homo sapiens (Human), UniProt Q9NZQ7)
Assay: T cell activation luciferase reporter cell culture system (T Cell Activation Assay)
Format: cell-based
Settings: luciferase reporter assay; PD-L1 aAPC/CHO-K1 cells with PD-1 effector Jurkat T cells

human PD-L1, sequence (Q9NZQ7 19-290): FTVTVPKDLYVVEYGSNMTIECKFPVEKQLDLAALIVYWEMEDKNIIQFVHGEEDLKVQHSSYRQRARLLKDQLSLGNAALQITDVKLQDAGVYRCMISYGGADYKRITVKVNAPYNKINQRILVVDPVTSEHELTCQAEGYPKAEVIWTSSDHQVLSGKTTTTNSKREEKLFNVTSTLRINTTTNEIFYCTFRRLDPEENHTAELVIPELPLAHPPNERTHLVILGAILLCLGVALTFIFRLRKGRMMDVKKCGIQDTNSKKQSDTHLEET

| EC50 | Compound |
| --- | --- |
| 0.205 µM | CCOc1cc(-c2nccc(-c3cccc(-c4ccc(CNC5CCN(C(C)=O)CC5)c(OC)n4)c3Cl)c2Cl)cn2nc(CN3CC4(CNC(=O)C4)C3)nc12 [Example 586, 2-((6-(4-(3-(5-(((1-Acetylpiperidin-4-yl)amino)methyl)-6-methoxypyridin-2-yl)-2-chlorophenyl)-3-chloropyridin-2-yl)-8-ethoxy-[1,2,4]triazolo[1,5-a]pyridin-2-yl)methyl)-2,6-diazaspiro[3.4]octan-7-one] |
| ≥ 10 µM | COc1cc(-c2nccc(-c3cccc(-c4ccc(CN[C@H]5CC[C@H](O)CC5)c(OC)n4)c3C(F)(F)F)c2Cl)ccc1CN[C@H]1CC[C@H](O)CC1 [Example 588, (1r,4r)-4-(((6-(3-(3-Chloro-2-(4-((((1r,4r)-4-hydroxycyclohexyl)amino)methyl)-3-methoxyphenyl)pyridin-4-yl)-2-(trifluoromethyl)phenyl)-2-methoxypyridin-3-yl)methyl)amino)cyclohexan-1-ol] |
| ≥ 10 µM | COc1cc(-c2ncnc(-c3cccc(-c4ccc(CN5CC6(C5)CN(C(C)=O)C6)c(OC)n4)c3Cl)c2Cl)ccc1CN1CC2(C1)CN(C(C)=O)C2 [Example 589, 1-(6-((6-(3-(6-(4-((6-Acetyl-2,6-diazaspiro[3.3]heptan-2-yl)methyl)-3-methoxyphenyl)-5-chloropyrimidin-4-yl)-2-chlorophenyl)-2-methoxypyridin-3-yl)methyl)-2,6-diazaspiro[3.3]heptan-2-yl)ethan-1-one] |
| 1.2 µM | COc1cc(-c2nccc(-c3cccc(NC(=O)c4ccc(CN5CC6(CNC(=O)C6)C5)cn4)c3C)c2Cl)ccc1CN1CC2(CNC(=O)C2)C1 [Example 590, N-(3-(3-Chloro-2-(3-methoxy-4-((7-oxo-2,6-diazaspiro[3.4]octan-2-yl)methyl)phenyl)pyridin-4-yl)-2-methylphenyl)-5-((7-oxo-2,6-diazaspiro[3.4]octan-2-yl)methyl)picolinamide] |
| 0.0864 µM | COc1cc(-c2ncnc(-c3cccc(-c4ccc(CN[C@H]5C[C@@H](O)C5)c(OC)n4)c3Cl)c2Cl)ccc1CN[C@H]1C[C@@H](O)C1 [Example 592, (1s,3s)-3-(((6-(2-Chloro-3-(5-chloro-6-(4-((((1s,3s)-3-hydroxycyclobutyl)amino)methyl)-3-methoxyphenyl)pyrimidin-4-yl)phenyl)-2-methoxypyridin-3-yl)methyl)amino)cyclobutan-1-ol] |
| 0.35 µM | COc1nc(-c2cccc(-c3ccnc(-c4cc(OC)c5nc(CN[C@H]6C[C@](C)(O)C6)nn5c4)c3Cl)c2Cl)ccc1CNC1CCN(C(C)=O)CC1 [Example 596, 1-(4-(((6-(2-Chloro-3-(3-chloro-2-(2-((((1r,3r)-3-hydroxy-3-methylcyclobutyl)amino)methyl)-8-methoxy-[1,2,4]triazolo[1,5-a]pyridin-6-yl)pyridin-4-yl)phenyl)-2-methoxypyridin-3-yl)methyl)amino)piperidin-1-yl)ethan-1-one] |
| 0.0164 µM | COc1nc(-c2cccc(-c3ccnc(-c4ccc(CN5CC6(CNC(=O)C6)C5)c(OC(F)F)c4)c3Cl)c2Cl)ccc1CN1CC2(CNC(=O)C2)C1 [Example 597, 2-((6-(2-Chloro-3-(3-chloro-2-(3-(difluoromethoxy)-4-((7-oxo-2,6-diazaspiro[3.4]octan-2-yl)methyl)phenyl)pyridin-4-yl)phenyl)-2-methoxypyridin-3-yl)methyl)-2,6-diazaspiro[3.4]octan-7-one] |
| 0.0368 µM | COc1nc(-c2cccc(-c3ccnc(-c4ccc(CN5CC6(C5)CN(C(C)=O)C6)c(OC(F)F)c4)c3Cl)c2Cl)ccc1CN1CC2(C1)CN(C(C)=O)C2 [Example 598, 1-(6-((6-(3-(2-(4-((6-Acetyl-2,6-diazaspiro[3.3]heptan-2-yl)methyl)-3-(difluoromethoxy)phenyl)-3-chloropyridin-4-yl)-2-chlorophenyl)-2-methoxypyridin-3-yl)methyl)-2,6-diazaspiro[3.3]heptan-2-yl)ethan-1-one] |
| ≥ 10 µM | COc1cc(-c2nccc(-c3cccc(-c4ccc(CNC5CC6(COC6)C5)c(OC)n4)c3C(F)(F)F)c2Cl)ccc1CNC1CC2(COC2)C1 (stereo not shown) [Example 604, N-((6-(3-(2-(4-(((2-Oxaspiro[3.3]heptan-6-yl)amino)methyl)-3-methoxyphenyl)-3-chloropyridin-4-yl)-2-(trifluoromethyl)phenyl)-2-methoxypyridin-3-yl)methyl)-2-oxaspiro[3.3]heptan-6-amine] |
| 0.0183 µM | COCCC(=O)N1CCC(NCc2ccc(-c3cccc(-c4ccnc(-c5ccc(CNC6CCN(C(C)=O)CC6)c(OC)c5)c4Cl)c3Cl)nc2OC)CC1 [Example 607, 1-(4-(((6-(3-(2-(4-(((1-Acetylpiperidin-4-yl)amino)methyl)-3-methoxyphenyl)-3-chloropyridin-4-yl)-2-chlorophenyl)-2-methoxypyridin-3-yl)methyl)amino)piperidin-1-yl)-3-methoxypropan-1-one] |
| 0.0224 µM | COc1nc(-c2ccnc(-c3cccc4c3CC[C@@H]4Oc3nc(OC)c(CNC4CCOCC4)cc3C(F)(F)F)c2Cl)ccc1CNC[C@@H]1CCC(=O)N1 [Example 608, (S)-5-((((3′-Chloro-6-methoxy-2′-((S)-1-((6-methoxy-5-(((tetrahydro-2H-pyran-4-yl)amino)methyl)-3-(trifluoromethyl)pyridin-2-yl)oxy)-2,3-dihydro-1H-inden-4-yl)-[2,4′-bipyridin]-5-yl)methyl)amino)methyl)pyrrolidin-2-one] |
| ≥ 10 µM | COc1nc(-c2cccc(-c3ccnc(-c4ccc5c(c4)S(=O)(=O)CCN(C[C@H](C)O)C5)c3Cl)c2Cl)ccc1CNC[C@@H]1CCC(=O)N1 [Example 611, (S)-5-((((6-(2-Chloro-3-(3-chloro-2-(4-((S)-2-hydroxypropyl)-1,1-dioxido-2,3,4,5-tetrahydrobenzo[f][1,4]thiazepin-8-yl)pyridin-4-yl)phenyl)-2-methoxypyridin-3-yl)methyl)amino)methyl)pyrrolidin-2-one] |
| ≥ 10 µM | COc1cc(-c2nccc(-c3cccc(-c4ccc(CNCCO)c(OC)n4)c3C(F)(F)F)c2Cl)ccc1CNCCO [Example 612, 2-(((6-(3-(3-Chloro-2-(4-(((2-hydroxyethyl)amino)methyl)-3-methoxyphenyl)pyridin-4-yl)-2-(trifluoromethyl)phenyl)-2-methoxypyridin-3-yl)methyl)amino)ethan-1-ol] |
| ≥ 10 µM | CNCc1ccc(-c2nccc(-c3cccc(-c4ccc(CNC)c(OC)n4)c3C(F)(F)F)c2Cl)cc1OC [Example 613, 1-(6-(3-(3-Chloro-2-(3-methoxy-4-((methylamino)methyl)phenyl)pyridin-4-yl)-2-(trifluoromethyl)phenyl)-2-methoxypyridin-3-yl)-N-methylmethanamine] |
| ≥ 10 µM | COCCNCc1ccc(-c2nccc(-c3cccc(-c4ccc(CNCCOC)c(OC)n4)c3C(F)(F)F)c2Cl)cc1OC [Example 614, N-((6-(3-(3-Chloro-2-(3-methoxy-4-(((2-methoxyethyl)amino)methyl)phenyl)pyridin-4-yl)-2-(trifluoromethyl)phenyl)-2-methoxypyridin-3-yl)methyl)-2-methoxyethan-1-amine] |
| 0.036 µM | COCCC(=O)N1CCC(NCc2ccc(-c3cccc(-c4ccnc(-c5ccc(CN6CCC(O)CC6)c(OC)c5)c4Cl)c3Cl)nc2OC)CC1 [Example 616, 1-(4-(((6-(2-Chloro-3-(3-chloro-2-(4-((4-hydroxypiperidin-1-yl)methyl)-3-methoxyphenyl)pyridin-4-yl)phenyl)-2-methoxypyridin-3-yl)methyl)amino)piperidin-1-yl)-3-methoxypropan-1-one] |
| 0.0389 µM | COc1nc(-c2cccc(-c3ccnc(-c4ccc(CNC[C@@H]5CCC(=O)N5)c(OC(F)F)c4)c3Cl)c2Cl)ccc1CNC[C@@H]1CCC(=O)N1 [Example 617, (S)-5-((((6-(2-Chloro-3-(3-chloro-2-(3-(difluoromethoxy)-4-(((((S)-5-oxopyrrolidin-2-yl)methyl)amino)methyl)phenyl)pyridin-4-yl)phenyl)-2-methoxypyridin-3-yl)methyl)amino)methyl)pyrrolidin-2-one] |
| 0.0577 µM | COc1nc(-c2cccc(-c3ccnc(-c4ccc(CNC5CCOCC5)c(OC(F)F)c4)c3Cl)c2Cl)ccc1CNC1CCOCC1 [Example 618, N-((6-(2-Chloro-3-(3-chloro-2-(3-(difluoromethoxy)-4-(((tetrahydro-2H-pyran-4-yl)amino)methyl)phenyl)pyridin-4-yl)phenyl)-2-methoxypyridin-3-yl)methyl)tetrahydro-2H-pyran-4-amine] |
| 0.0449 µM | COc1nc(-c2cccc(-c3ccnc(-c4ccc(CNC5CCN(CCO)CC5)c(OC(F)F)c4)c3Cl)c2Cl)ccc1CNC1CCN(CCO)CC1 [Example 620, 2-(4-(((6-(2-Chloro-3-(3-chloro-2-(3-(difluoromethoxy)-4-(((1-(2-hydroxyethyl)piperidin-4-yl)amino)methyl)phenyl)pyridin-4-yl)phenyl)-2-methoxypyridin-3-yl)methyl)amino)piperidin-1-yl)ethan-1-ol] |
| 0.216 µM | COc1cc(-c2ccnc(-c3cccc(-c4ccc(CN5CC6(CNC(=O)C6)C5)c(OC)n4)c3Cl)c2Cl)ccc1CN1CC2(CNC(=O)C2)C1 [Example 622, 2-(4-(3-Chloro-2-(2-chloro-3-(6-methoxy-5-((7-oxo-2,6-diazaspiro[3.4]octan-2-yl)methyl)pyridin-2-yl)phenyl)pyridin-4-yl)-2-methoxybenzyl)-2,6-diazaspiro[3.4]octan-7-one] |
| 0.222 µM | COc1cc(-c2ccnc(-c3cccc(-c4ccc(CNC5CCOCC5)c(OC)n4)c3Cl)c2Cl)ccc1CNC1CCOCC1 [Example 623, N-(4-(3-Chloro-2-(2-chloro-3-(6-methoxy-5-(((tetrahydro-2H-pyran-4-yl)amino)methyl)pyridin-2-yl)phenyl)pyridin-4-yl)-2-methoxybenzyl)tetrahydro-2H-pyran-4-amine] |
| 0.0167 µM | COc1cc(-c2ccnc(-c3cccc(-c4ccc(CNC[C@@H]5CCC(=O)N5)c(OC)n4)c3Cl)c2Cl)ccc1CNC[C@@H]1CCC(=O)N1 [Example 624, (S)-5-(((4-(3-Chloro-2-(2-chloro-3-(6-methoxy-5-(((((S)-5-oxopyrrolidin-2-yl)methyl)-amino)methyl)pyridin-2-yl)phenyl)pyridin-4-yl)-2-methoxybenzyl)-amino)methyl)pyrrolidin-2-one] |

Source: patent US20240246964A1 (Arbutus Biopharma Corporation, priority 2021, published 2024)
